# According to ChEMBL document CHEMBL1149631, “Synthesis of 3,8,9-trisubstituted-1,7,9-triaza-fluorene-6-carboxylic acid derivatives as a new class of insulin secretagogues” (Bioorg Med Chem, 2007):
# Calls of active or inactive are those of the source. The rule behind the calls is not given here.
# Experiments:
# [1] = Effect on insulin secretion activity per ug of total protein in rat RIN5F cells at 1 uM after 30 mins; format: functional
# [2] = Effect on glucose-dependent insulin secretion activity per ug of total protein in rat RIN5F cells at 0.1 uM after 30 mins; format: functional
# [3] = Effect on glucose-dependent insulin secretion activity per ug of total protein in rat RIN5F cells at 1 uM after 30 mins; format: functional
# [4] = Effect on insulin secretion activity per ug of total protein in rat RIN5F cells at 0.1 uM after 30 mins; format: functional
# [5] = Effect on glucose-dependent insulin secretion activity per ug of total protein in rat RIN5F cells at 10 uM after 30 mins; format: functional
# Oryctolagus cuniculus = organism: Oryctolagus cuniculus; assay: Displacement of [3H]idazoxan from I2-imidazoline binding site in rabbit kidney membrane upto 100 uM; format: cell membranes
# Rattus norvegicus = organism: Rattus norvegicus; assay: Displacement of [3H]clonidine from alpha2-AR in cerebral cortex of rat brain upto 100 uM; format: tissue-based
# Bos taurus = organism: Bos taurus; assay: Displacement of [3H]clonidine from I1-imidazoline binding site in bovine adrenal medulla plasma membrane upto 100 uM; format: tissue-based
# [6] = Displacement of [3H]clonidine from I1-imidazoline binding site in bovine adrenal medulla plasma membrane; format: tissue-based, Bos taurus
# [7] = Displacement of [3H]idazoxan from I2-imidazoline binding site in rabbit kidney membrane; format: cell membranes, Oryctolagus cuniculus
# [8] = Displacement of [3H]clonidine from alpha-2-adrenoceptor in cerebral cortex of rat brain; format: tissue-based
Activity (Oryctolagus cuniculus),Activity (Rattus norvegicus),Activity (Bos taurus),SMILES,Activity [1] [pg/µg/h],Activity [2] [pg/µg/h],Activity [3] [pg/µg/h],Activity [4] [pg/µg/h],Activity [5] [pg/µg/h],Ki [6] [µM],Ki [7] [µM],Ki [8] [µM]
inactive,inactive,inactive,COC(=O)C1Cc2c(n(C)c3ncc(C)cc23)C(Cc2ccccc2)N1 (stereo not drawn),–,15.1,15.9,–,16.8,–,–,–
inactive,inactive,inactive,COC(=O)c1cc2c3cc(C)cnc3n(C)c2c(Cc2ccccc2)n1,–,15.9,16.1,–,16.9,–,–,–

# The next lines start with the compound.
SMILES,Activity (Oryctolagus cuniculus),Activity (Rattus norvegicus),Activity (Bos taurus),Activity [1] [pg/µg/h],Activity [2] [pg/µg/h],Activity [3] [pg/µg/h],Activity [4] [pg/µg/h],Activity [5] [pg/µg/h],Ki [6] [µM],Ki [7] [µM],Ki [8] [µM]
CCCCNC(=O)NS(=O)(=O)c1ccc(C)cc1 [TOLBUTAMIDE],–,–,–,26,19.9,27.1,19.6,–,–,–,–
Cc1cnc2c(c1)c1cc(C(=O)O)nc(Cc3ccccc3)c1n2C,inactive,inactive,inactive,–,20,28.1,–,38.3,–,–,–
Cc1nccc2c1[nH]c1ccccc12 [HARMAN],–,–,–,–,20,27,–,37,0.036,0.054,> 12
